From article PMC7726319, “Discovery of 5,5′-Methylenedi-2,3-Cresotic Acid as a Potent Inhibitor of the Chemotactic Activity of the HMGB1·CXCL12 Heterocomplex Using Virtual Screening and NMR Validation” (Frontiers in Chemistry, 2020)

Target: T1, HMGB1 (Mus musculus, UniProt P63158)
T1 construct: 6His-tagged form for MST
T1 sequence (P63158 2-215): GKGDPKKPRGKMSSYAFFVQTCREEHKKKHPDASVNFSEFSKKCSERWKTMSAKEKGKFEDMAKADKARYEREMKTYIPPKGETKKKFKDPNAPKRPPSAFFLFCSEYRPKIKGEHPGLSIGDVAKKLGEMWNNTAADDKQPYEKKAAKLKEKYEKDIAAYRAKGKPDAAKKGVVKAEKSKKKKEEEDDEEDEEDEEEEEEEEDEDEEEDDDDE
Test: 1H-15N HSQC NMR titration (CSP fit)
Format: binding
Settings: read-out: apparent Kd

**Q.** `O=C(/C=C/c1ccc(O)c(O)c1)O[C@H](Cc1ccc(O)c(O)c1)C(=O)O` [compound 6, rosmarinic acid] was tested. Which Kd did it give?
**A.** Its Kd is greater than 10 mM.
